Patent US6984649B1, “Pyridine derivatives” (Bayer Aktiengesellschaft, priority 2000, dated 2006)

molecular target: T1, human IKK-β (Homo sapiens, UniProt O14920); test: IKK-β kinase inhibitory assay; format: biochemical; details: compounds as yielded by solid phase synthesis, purity about 40 to 90%, read-out: In vitro activity grade (In vitro IC50)
T1 construct: A cDNA fragment encoding human IKK-β open reading frame was generated by PCR; His tag (from pcDNA3.1/His C); made in house; host or cells: Sf21 insect cells (baculovirus); substrate made in E. coli
T1 sequence (O14920 1-756): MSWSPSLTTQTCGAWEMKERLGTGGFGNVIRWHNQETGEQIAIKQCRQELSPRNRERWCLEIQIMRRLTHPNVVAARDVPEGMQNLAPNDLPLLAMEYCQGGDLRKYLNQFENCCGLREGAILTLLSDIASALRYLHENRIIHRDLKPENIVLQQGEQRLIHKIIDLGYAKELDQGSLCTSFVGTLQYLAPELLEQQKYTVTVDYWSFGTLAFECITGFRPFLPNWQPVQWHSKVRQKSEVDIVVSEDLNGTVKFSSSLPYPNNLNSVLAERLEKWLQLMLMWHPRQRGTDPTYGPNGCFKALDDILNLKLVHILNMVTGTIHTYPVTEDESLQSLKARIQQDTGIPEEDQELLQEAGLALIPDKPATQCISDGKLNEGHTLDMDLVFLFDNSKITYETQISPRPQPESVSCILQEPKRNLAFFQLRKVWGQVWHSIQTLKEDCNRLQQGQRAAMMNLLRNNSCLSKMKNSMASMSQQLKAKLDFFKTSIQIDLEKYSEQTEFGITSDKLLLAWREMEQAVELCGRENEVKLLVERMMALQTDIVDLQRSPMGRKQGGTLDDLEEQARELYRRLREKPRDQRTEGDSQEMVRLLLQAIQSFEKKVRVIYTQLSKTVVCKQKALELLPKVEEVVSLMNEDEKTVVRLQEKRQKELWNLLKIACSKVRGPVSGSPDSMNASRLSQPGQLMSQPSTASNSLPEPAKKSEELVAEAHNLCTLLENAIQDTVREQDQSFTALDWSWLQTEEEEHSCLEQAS
Method in brief: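 Radiometric read-out: streptavidin capture of 33P-labelled bio-GST-IκBα(1-54), 0.2 μM, after a 2 h room-temperature reaction started with ATP/[γ-33P]ATP. Enzyme was recombinant His-tagged human IKK-β expressed in Sf21 insect cells, used at 0.6 μg/ml in Tris-HCl pH 7.6/MgCl2 kinase buffer. Compounds added in 2.5% DMSO.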

IC50, 2000 to 10000 nM:
COc1ccc(CN2CCCC(c3cc(-c4c(O)cccc4OCC4CC4)nc(N)c3C#N)C2)cc1 (stereo not drawn) [Example 3-08]
Cc1cc(-c2c(O)cccc2OCC2CC2)nc2c1COC(=O)N2 [Example 18-09]

IC50, 500 to 2000 nM:
CCC(=O)NCc1c(C2CCCNC2)cc(-c2ccccc2O)nc1N (stereo not drawn) [Example 23-06]
O=C1Nc2nc(-c3c(O)cccc3O)cc(C3CCNCC3)c2CO1 [Example 18-12]
N#Cc1c(C2CCCN(CCc3ccccc3)C2)cc(-c2ccccc2O)nc1N (stereo not drawn) [Example 3-06]

IC50, < 500 nM:
N#Cc1c(C2CCCNC2)cc(-c2c(O)cccc2OCc2ccc(-c3ccccc3)cc2)nc1N (stereo not drawn) [Example 2-33]
N#Cc1c(C2CCCNC2)cc(-c2c(O)cccc2OCc2cccc3ccccc23)nc1N (stereo not drawn) [Example 2-32]
Cc1ccc(COc2cccc(O)c2-c2cc(C3CCCNC3)c(C#N)c(N)n2)cc1 (stereo not drawn) [Example 2-35]
NC(=O)N1Cc2c(C3CCCNC3)cc(-c3c(O)cccc3OCC3CC3)nc2NC1=O (stereo not drawn) [Example 24-10]
N#Cc1c(C2CCNCC2)cc(-c2c(O)cccc2OCCc2ccccc2)nc1N [Example 2-52]
CCCOc1cccc(O)c1-c1cc(C2CCCNC2)c(CO)c(N)n1 (stereo not drawn) [Example 12-03]
CCCOc1cccc(O)c1-c1cc(C2CCCNC2)c2c(n1)NC(=O)OC2 (stereo not drawn) [Example 18-11]
CCOc1cccc(O)c1-c1cc(C2CCCNC2)c(C#N)c(N)n1 (stereo not drawn) [Example 2-58]
N#Cc1c(C2CCCNC2)cc(-c2c(O)cccc2OCc2csc3ccc(Cl)cc23)nc1N (stereo not drawn) [Example 2-47]
NC(=O)NCc1c(C2CCCNC2)cc(-c2c(O)cccc2OCC2CC2)nc1N (stereo not drawn) [Example 23-13]
Nc1nc(-c2c(O)cccc2OCC2CC2)cc(C2CCNCC2)c1CO [Example 12-05]
Nc1nc(-c2c(O)cccc2OCc2ccccc2)cc(C2CCCNC2)c1CO (stereo not drawn) [Example 12-02]
CN(C)C(=O)NCc1c(C2CCCNC2)cc(-c2c(O)cccc2OCC2CC2)nc1N (stereo not drawn) [Example 23-11]
CC(C)(C)COC(=O)NCc1c(C2CCCNC2)cc(-c2c(O)cccc2OCC2CC2)nc1N (stereo not drawn) [Example 23-10]
O=C1Nc2nc(-c3c(O)cccc3OCC3CC3)cc(C3CCNCC3)c2CO1 [Example 18-13]
CC(=O)NCc1c(C2CCCNC2)cc(-c2ccccc2O)nc1N (stereo not drawn) [Example 23-04]
N#Cc1c(C2CCCNC2)cc(-c2c(O)cccc2OCc2ccc(Cl)cc2Cl)nc1N (stereo not drawn) [Example 2-34]
CC(C)COC(=O)NCc1c(C2CCCNC2)cc(-c2c(O)cccc2OCC2CC2)nc1N (stereo not drawn) [Example 23-09]
N#Cc1c(C2CCCNC2)cc(-c2c(O)cccc2OCC2CCCCC2)nc1N (stereo not drawn) [Example 2-53]
O=C1Nc2nc(-c3c(O)cccc3OCc3ccccc3)cc(C3CCCNC3)c2CO1 (stereo not drawn) [Example 18-10]
N#Cc1c(C2CCCNC2)cc(-c2c(O)cccc2OCc2ccc(F)cc2)nc1N (stereo not drawn) [Example 2-28]
CC(C)COc1cccc(O)c1-c1cc(C2CCCNC2)c(C#N)c(N)n1 (stereo not drawn) [Example 2-59]
CC(=O)NCc1c(C2CCNCC2)cc(-c2c(O)cccc2OCC2CC2)nc1N [Example 23-07]
N#Cc1c(C2CCCNC2)cc(-c2c(O)cccc2OCc2ccccc2-c2ccccc2)nc1N (stereo not drawn) [Example 2-22]
O=C1Nc2nc(-c3c(O)cccc3OCc3ccccc3)cc(C3CCNCC3)c2CO1 [Example 18-16]
COC(=O)c1ccc(COc2cccc(O)c2-c2cc(C3CCCNC3)c(C#N)c(N)n2)cc1 (stereo not drawn) [Example 2-38]
Nc1nc(-c2c(O)cccc2OCC2CC2)cc(C2CCCNC2)c1CNC(=O)Nc1ccccc1 (stereo not drawn) [Example 23-14]
COC(=O)c1ccc(COc2cccc(O)c2-c2cc(C3CCCNC3)c(C#N)c(N)n2)cc1 (stereo not drawn) [Example 2-30]
CC(C)(C)COc1cccc(O)c1-c1cc(C2CCCNC2)c(CO)c(N)n1 (stereo not drawn) [Example 12-04]
Cc1ccccc1COc1cccc(O)c1-c1cc(C2CCCNC2)c(C#N)c(N)n1 (stereo not drawn) [Example 2-06]
O=C1Nc2nc(-c3c(O)cccc3F)cc(C3CCCNC3)c2CO1 (stereo not drawn) [Example 18-07]
CCCNC(=O)NCc1c(C2CCCNC2)cc(-c2c(O)cccc2OCC2CC2)nc1N (stereo not drawn) [Example 23-12]
O=C1Nc2nc(-c3ncccc3O)cc(C3CCCNC3)c2CO1 (stereo not drawn) [Example 18-08]
N#Cc1c(C2CCCNC2)cc(-c2c(O)cccc2OCc2ccc(F)c(F)c2)nc1N (stereo not drawn) [Example 2-29]
CC(C)(C)COC(=O)N1Cc2c(C3CCCNC3)cc(-c3c(O)cccc3OCC3CC3)nc2NC1=O (stereo not drawn) [Example 24-07]
N#Cc1c(CCN)cc(-c2c(O)cccc2OCc2ccccc2)nc1N [Example 2-40]
N#Cc1c(C2CCCNC2)cc(-c2c(O)cccc2OCc2ccccc2F)nc1N (stereo not drawn) [Example 2-25]
COc1cccc(O)c1-c1cc(C2CCCNC2)c(C#N)c(N)n1 (stereo not drawn) [Example 2-57]
N#Cc1c(C2CCCNC2)cc(-c2c(O)cccc2OCc2cccnc2)nc1N (stereo not drawn) [Example 2-43]
N#Cc1c(C2CCNCC2)cc(-c2c(O)cccc2OCc2ccccc2)nc1N [Example 2-23]
Cc1cc(COc2cccc(O)c2-c2cc(C3CCCNC3)c(C#N)c(N)n2)no1 (stereo not drawn) [Example 2-49]
C=CCOc1cccc(O)c1-c1cc(C2CCCNC2)c(C#N)c(N)n1 (stereo not drawn) [Example 2-56]
CCCCCOc1cccc(O)c1-c1cc(C2CCCNC2)c(C#N)c(N)n1 (stereo not drawn) [Example 2-60]
CN(C)C(=O)N1Cc2c(C3CCCNC3)cc(-c3c(O)cccc3OCC3CC3)nc2NC1=O (stereo not drawn) [Example 24-08]
CC(C)CCCOc1cccc(O)c1-c1cc(C2CCNCC2)c2c(n1)NC(=O)OC2 [Example 18-15]
CC(C)OC(=O)NCc1c(C2CCCNC2)cc(-c2c(O)cccc2OCC2CC2)nc1N (stereo not drawn) [Example 23-08]
CCCN1CCCC(c2cc(-c3ccccc3O)nc(N)c2C#N)C1 (stereo not drawn) [Example 3-04]
CC(C)CCCOc1cccc(O)c1-c1cc(C2CCNCC2)c(CO)c(N)n1 [Example 12-07]
N#Cc1c(C2CCCNC2)cc(-c2c(O)cccc2OCc2ccc(Br)cc2)nc1N (stereo not drawn) [Example 2-39]
CC(C)(C)c1ccc(COc2cccc(O)c2-c2cc(C3CCCNC3)c(C#N)c(N)n2)cc1 (stereo not drawn) [Example 2-31]
N#Cc1c(C2CCCNC2)cc(-c2c(O)cccc2OCCCc2ccccc2)nc1N (stereo not drawn) [Example 2-50]
N#Cc1c(C2CCCNC2)cc(-c2c(O)cccc2OCc2ccccc2F)nc1N (stereo not drawn) [Example 2-37]
N#Cc1c(C2CCCNC2)cc(-c2c(O)cccc2OCCc2ccccc2)nc1N (stereo not drawn) [Example 2-41]
CCCOc1cccc(O)c1-c1cc(C2CCNCC2)c(CO)c(N)n1 [Example 12-06]
CCCOc1cccc(O)c1-c1cc(C2CCNCC2)c2c(n1)NC(=O)OC2 [Example 18-14]
N#Cc1c(C2CCCNC2)cc(-c2c(O)cccc2OCc2ccc(Cl)c(Cl)c2)nc1N (stereo not drawn) [Example 2-05]
Nc1nc(-c2ccccc2O)cc(C2CCCNC2)c1CNC(=O)C1CC1 (stereo not drawn) [Example 23-05]
N#Cc1c(C2CCCNC2)cc(-c2c(O)cccc2OCCC(c2ccccc2)c2ccccc2)nc1N (stereo not drawn) [Example 2-46]
N#Cc1c(C2CCCNC2)cc(-c2c(O)cccc2OCc2ccc(Br)cc2)nc1N (stereo not drawn) [Example 2-24]
N#Cc1c(C2CCCNC2)cc(-c2c(O)cccc2OCc2cccc(F)c2)nc1N (stereo not drawn) [Example 2-27]
COc1ccc(CN2CCCC(c3cc(-c4c(O)cccc4O)nc(N)c3C#N)C2)cc1 (stereo not drawn) [Example 3-07]
N#Cc1c(C2CCCNC2)cc(-c2c(O)cccc2OCc2ncon2)nc1N (stereo not drawn) [Example 2-48]
N#Cc1c(C2CCCNC2)cc(-c2c(O)cccc2OCc2ccccn2)nc1N (stereo not drawn) [Example 2-42]
CN1CCCC(c2cc(-c3ccccc3O)nc(N)c2C#N)C1 (stereo not drawn) [Example 3-03]
N#Cc1c(C2CCCNC2)cc(-c2c(O)cccc2OCC(=O)c2ccccc2)nc1N (stereo not drawn) [Example 2-51]
N#Cc1c(C2CCCNC2)cc(-c2c(O)cccc2OCc2ccc3ccccc3n2)nc1N (stereo not drawn) [Example 2-45]
CC(C)COC(=O)N1Cc2c(C3CCCNC3)cc(-c3c(O)cccc3OCC3CC3)nc2NC1=O (stereo not drawn) [Example 24-06]
